Laboratory results reported in the supplement of paper PMC10627819.

Legend:
Experiment in all cases: fitness (endpoint OD595 vs no drug) (fraction); higher = more growth
S. pneumoniae D39V = system: S. pneumoniae D39V
Summary of the method: (§1)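 In 384-well plates at 37 °C, cultures began at OD595 0.01 in 30 µl, with 55 µl used for S. pneumoniae. OD595 readings every 30 min for 14 h were corrected by the first reading. Fitness divides the stationary-phase transition optical density by the robust mean of no-drug control wells. The result is capped at 1.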

B. subtilis 168 = system: B. subtilis 168
Summary of the method: as §1

S. aureus Newman = settings: one replicate
Summary of the method: as §1
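Further: OD595 on entry to stationary phase over no-drug wells; at most 1.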

O=C(O)[C@H]1/C(=C/CO)O[C@@H]2CC(=O)N21 [Clavulanic acid] + CN[C@@H]1[C@H](O)[C@H](NC)[C@H]2O[C@@]3(O)C(=O)C[C@@H](C)O[C@H]3O[C@@H]2[C@H]1O [Spectinomycin]
fitness
Settings | partner 2 µg/mL | partner 4 µg/mL | partner 8 µg/mL | partner 16 µg/mL
B. subtilis 168, first compound 1.5 µg/mL | 0.892 | 0.929 | 0.934 | –
B. subtilis 168, first compound 3 µg/mL | 0.951 | 0.868 | 0.867 | –
B. subtilis 168, first compound 6 µg/mL | 0.832 | 0.755 | 0.72 | –
S. aureus Newman, first compound 0.03125 µg/mL | – | 0.961 | 0.945 | 0.92
S. aureus Newman, first compound 0.0625 µg/mL | – | 0.922 | 0.945 | 0.885
S. aureus Newman, first compound 0.125 µg/mL | – | 0.916 | 0.958 | 0.905
S. pneumoniae D39V, first compound 0.5 µg/mL | – | 0.916 | 0.852 | 0.658
S. pneumoniae D39V, first compound 1 µg/mL | – | 0.809 | 0.845 | 0.621
S. pneumoniae D39V, first compound 2 µg/mL | – | 0.79 | 0.749 | 0.447

O=C(O)[C@H]1/C(=C/CO)O[C@@H]2CC(=O)N21 [Clavulanic acid] + N[C@@H]1CONC1=O [Cycloserine D]
fitness
Settings | first compound 0.03125 µg/mL | first compound 0.0625 µg/mL | first compound 0.125 µg/mL | first compound 1.5 µg/mL | first compound 3 µg/mL | first compound 6 µg/mL
B. subtilis 168, partner 0.125 µg/mL | – | – | – | 0.903 | 0.909 | 0.792
B. subtilis 168, partner 0.25 µg/mL | – | – | – | 0.957 | 0.861 | 0.801
B. subtilis 168, partner 0.5 µg/mL | – | – | – | 0.946 | 0.915 | 0.832
S. aureus Newman, partner 0.375 µg/mL | 0.902 | 0.954 | 0.885 | – | – | –
S. aureus Newman, partner 0.75 µg/mL | 0.884 | 0.942 | 0.888 | – | – | –
S. aureus Newman, partner 1.5 µg/mL | 0.899 | 0.858 | 0.897 | – | – | –

O=C(O)[C@H]1/C(=C/CO)O[C@@H]2CC(=O)N21 [Clavulanic acid] + CN[C@@H]1[C@H](O[C@H]2[C@H](O[C@H]3[C@H](O)[C@@H](O)[C@H](N=C(N)N)[C@@H](O)[C@@H]3N=C(N)N)O[C@@H](C)[C@]2(O)C=O)O[C@@H](CO)[C@H](O)[C@H]1O [Streptomycin]
fitness
Settings | partner 2 µg/mL | partner 4 µg/mL | partner 8 µg/mL
B. subtilis 168, first compound 1.5 µg/mL | 0.963 | – | 0.0564
B. subtilis 168, first compound 3 µg/mL | 0.93 | – | 0.0395
B. subtilis 168, first compound 6 µg/mL | 0.804 | – | 0.0332
S. aureus Newman, first compound 0.03125 µg/mL | 0.945 | 0.937 | 0.753
S. aureus Newman, first compound 0.0625 µg/mL | ≥ 1 | 0.936 | 0.786
S. aureus Newman, first compound 0.125 µg/mL | 0.991 | 0.938 | 0.786
S. pneumoniae D39V, first compound 0.5 µg/mL | 0.955 | 0.929 | 0.901
S. pneumoniae D39V, first compound 1 µg/mL | 0.899 | 0.886 | 0.855
S. pneumoniae D39V, first compound 2 µg/mL | 0.757 | 0.78 | 0.768

S. pneumoniae D39V, partner 16 µg/mL, one replicate
Settings | fitness
first compound 0.5 µg/mL | 0.761
first compound 1 µg/mL | 0.774
first compound 2 µg/mL | 0.649

O=C(O)[C@H]1/C(=C/CO)O[C@@H]2CC(=O)N21 [Clavulanic acid] + CO/N=C(\C(=O)N[C@@H]1C(=O)N2C(C(=O)[O-])=C(C[N+]3(C)CCCC3)CS[C@H]12)c1csc(N)n1 [Cefepime]
fitness
Settings | partner 0.007 µg/mL | partner 0.0078 µg/mL | partner 0.014 µg/mL | partner 0.0155 µg/mL | partner 0.028 µg/mL | partner 0.031 µg/mL | partner 0.125 µg/mL | partner 0.25 µg/mL | partner 0.5 µg/mL
S. aureus Newman, first compound 0.03125 µg/mL | – | – | – | – | – | – | 0.965 | 0.943 | 0.946
S. aureus Newman, first compound 0.0625 µg/mL | – | – | – | – | – | – | 0.94 | 0.914 | 0.871
S. aureus Newman, first compound 0.125 µg/mL | – | – | – | – | – | – | 0.881 | 0.884 | 0.869
S. pneumoniae D39V, first compound 0.5 µg/mL | 0.996 | 0.997 | 0.997 | 0.957 | 0.885 | 0.501 | – | – | –
S. pneumoniae D39V, first compound 1 µg/mL | 0.991 | 0.955 | 0.988 | 0.91 | 0.817 | 0.456 | – | – | –
S. pneumoniae D39V, first compound 2 µg/mL | 0.902 | 0.778 | 0.904 | 0.681 | 0.633 | 0.199 | – | – | –
